Measurements as given in patent US20100069417A1, “NOVEL PHENYL(4-PHENYLPYRIMIDIN-2-YL)AMINE DERIVATIVES, THEIR PREPARATION, AS MEDICAMENTS, PHARMACEUTICAL COMPOSITIONS AND IN PARTICULAR AS IKK INHIBITORS” (SANOFI-AVENTIS, priority 2007, published 2010).

SMILES	melting point [°C]
CNC1CCN(S(=O)(=O)c2ccc(Nc3nccc(-c4ccc(F)cc4)n3)cc2)CC1 [Example 1, [4-(4-Fluorophenyl)pyrimidin-2-yl][4-(4-(methylamino)piperidin-1-ylsulphonyl)phenyl]amine]	202.9
CN(C1CCNCC1)S(=O)(=O)c1ccc(Nc2nccc(-c3ccc(F)cc3)n2)cc1 [Example 4, 4-[4-(4-Fluorophenyl)pyrimidin-2-ylamino]-N-methyl-N-(piperidin-4-yl)benzenesulphonamide]	115.6
NCCN(C1CCN(Cc2ccccc2)CC1)S(=O)(=O)c1ccc(Nc2nccc(-c3ccc(F)cc3)n2)cc1 [Example 5, N-(2-Aminoethyl)-N-(1-benzylpiperidin-4-yl)-4-[4-(4-fluorophenyl)-pyrimidin-2-ylamino]benzenesulphonamide]	194.4

More lines, now with the values ahead:

melting point [°C]	SMILES
166.5	CN(CCS(C)(=O)=O)C1CCN(S(=O)(=O)c2ccc(Nc3nccc(-c4ccc(F)cc4)n3)cc2)CC1 [Example 2, [4-(4-Fluorophenyl)pyrimidin-2-yl]-(4-{4-[(2-(methylsulphonyl)ethyl)(methyl)amino]piperidin-1-ylsulphonyl}phenyl)amine]
140	CN(Cc1ncc[nH]1)C1CCN(S(=O)(=O)c2ccc(Nc3nccc(-c4ccc(F)cc4)n3)cc2)CC1 [Example 3, [4-(4-Fluorophenyl)pyrimidin-2-yl]-(4-{4-[(1H-imidazol-2-ylmethyl) (methyl)amino]piperidin-1-ylsulphonyl}phenyl) amine]
